Drawing on patent US20250361234A1 (NICO THERAPEUTICS, INC., priority 2022, published 2025), this text covers IC50 for 27 compounds.

This assay addresses T1, full-length SARM1 (FL-SARM1) (Homo sapiens, UniProt Q6SZW1).
T1 sequence (Q6SZW1 28-724): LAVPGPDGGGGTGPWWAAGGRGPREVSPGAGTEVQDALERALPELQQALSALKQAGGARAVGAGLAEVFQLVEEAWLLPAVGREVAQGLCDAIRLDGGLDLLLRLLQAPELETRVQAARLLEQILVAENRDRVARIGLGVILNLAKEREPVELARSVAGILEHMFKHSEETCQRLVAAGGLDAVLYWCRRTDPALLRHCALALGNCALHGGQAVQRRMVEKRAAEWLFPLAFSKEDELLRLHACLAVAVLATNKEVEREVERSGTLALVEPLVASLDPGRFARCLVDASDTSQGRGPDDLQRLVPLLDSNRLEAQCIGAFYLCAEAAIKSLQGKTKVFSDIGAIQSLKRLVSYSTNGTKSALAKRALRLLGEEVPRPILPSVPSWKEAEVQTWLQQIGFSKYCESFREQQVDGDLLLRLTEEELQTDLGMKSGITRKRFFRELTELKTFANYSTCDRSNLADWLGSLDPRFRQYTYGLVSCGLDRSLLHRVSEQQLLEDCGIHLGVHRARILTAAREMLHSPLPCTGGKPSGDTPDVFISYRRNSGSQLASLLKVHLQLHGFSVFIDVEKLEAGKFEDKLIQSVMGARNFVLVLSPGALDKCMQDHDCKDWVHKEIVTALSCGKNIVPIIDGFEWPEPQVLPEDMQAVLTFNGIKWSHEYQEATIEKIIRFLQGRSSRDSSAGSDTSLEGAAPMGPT
Briefly: FL-SARM1 cellular lysate assay (NAD/NADH-Glo readout of remaining NAD+). To be noted: SARM1 cellular lysate from transfected HEK293T cells, NAD+ and NMN, 11 point curve.

Broadly, the IC50 is the midpoint of a concentration-inhibition curve. Lower therefore signals higher potency.

Experimental: Preparation of full-length SARM1 (FL-SARM1) lysate: HEK293T cells (ATCC: CRL-3216) were grown on 150 mm TC-treated dishes to 80-90% confluency in complete DMEM (Thermo Fisher: 11965175) supplemented with 10% HI-FBS (VWR: 10802-772), 1× Pen/Strep (Thermo Fisher: 15140122), 1× NEAA (Thermo Fisher: 1140050), 1× glutamax (Thermo Fisher: 35050061), and 1 mM sodium pyruvate (Thermo Fisher: 11360070)) at 37° C. and 5% CO2. One hour prior to transfection, the media was replaced with fresh, 37° C. complete DMEM (20 mL per one 150 mm dish) supplemented with additional 10 mM glucose (Alfa Aesar AAJ60067EQE). Per one 150 mm dish, 30 μg FL-SARM1 (SEQ. ID. 1; cloned in-house) plasmid was dissolved in 1 mL DMEM at ambient temperature and were mixed by inverting the tube 8-10 times. 90 μL of GenJet™ in vitro DNA transfection reagent (Ver2) was dissolved in 1 mL DMEM at ambient temperature and were mixed by inverting the tube 8-10 times. The plasmid and transfection agent solutions were combined, mixed by 8-10 inversions and incubated for 10 minutes at ambient temperature. 2 mL of this transfection mixture was added to each dish containing HEK293T cells as prepared above followed by a gentle mixing of 4-5 horizontal rotations. The dishes were incubated at 37° C. and 5% CO2 for 24 h. The dishes were removed from the incubator, the medium was aspirated and the cells were scraped off using cell scrapers in ice-cold 1× PBS (5 mL/dish, Thermo Fisher Scientific 10010023). The collected cells were centrifuged at 300 g for 5 minutes at 4° C. The supernatant was aspirated and the pellet was frozen at −80° C. until needed. The cell pellet from 30 dishes was dissolved in 30 mL 1× PBS supplemented with 4 tablets of Complete, Mini EDTA-free protease inhibitor cocktail at 4° C. This mixture was sonicated on ice for 10 minutes at 50% amplitude with a 1 second on/1 second off interval using a Model 120 sonicator (Thermo Fisher Scientific, FB120110). The lysate was centrifuged at 16000 g for 10 minutes at 4° C.
To a white 384-well Proxiplate (PerkinElmer, PE-6008280) was added 50 nL/well of a DMSO solution containing test compounds followed by 7.5 mL/well of a 0.067 mg/mL solution of SARM1 cellular lysate in reaction buffer (DPBS containing CHAPSO (0.1%) and fatty acid free BSA (0.032%)). The plate was centrifuged for 1 minute at 1000 RPM and then placed in an incubator at 23° C. for 15 minutes. To the wells were added 2.5 mL/well of a solution containing 40 mM NAD^+ and 4 mM NMN in reaction buffer. The plate was centrifuged for 1 min at 1000 RPM, the plate was sealed and placed in an incubator at 23° C. for 3.5 hours before adding 3.5 mL/well of NAD/NADH-Glo™ solution (preparation as described by Promega using the extended detection protocol). The plate was centrifuged for 1 minute at 1000 RPM and then incubated at 23° C. for 20 minutes. 1 mL/well of a 3.625 mM solution of menadione in DMSO was added and the plate was centrifuged for 1 minute at 1000 RPM. […] Percent inhibition was calculated as follows:
IC50 values were calculated from an 11 point curve using ½ log dilutions using a four-parameter logistic regression curve fit.

`Cc1ccc(NC(=O)N2C3C[C@H]2C[C@H](n2cccn2)C3)cc1-c1cncc(F)c1` [Example 6, trans-N-(3-(5-fluoropyridin-3-yl)-4-methylphenyl)-3-(1H-pyrazol-1-yl)-6-azabicyclo[3.1.1]heptane-6-carboxamide]: the IC50 is, setting by setting: (Activity (μM)) 6.6 µM; (Activity) 1 to 10 µM.

As for `CO[C@@H]1CC[C@H]2CC1N2C(=O)Nc1ccc(C)c(-c2cncc(F)c2)c1` [Example 7, trans-N-(3-(5-fluoropyridin-3-yl)-4-methylphenyl)-2-methoxy-6-azabicyclo[3.1.1]heptane-6-carboxamide], the half-maximal inhibitory concentration (IC50) is 2 µM (Activity (μM)) and 1 to 10 µM (Activity).

Turning to `Cc1ccc(NC(=O)N2C3C[C@H]2C[C@@H](C(C)(C)O)C3)cc1-c1cncc(F)c1` [Example 9, cis-N-(3-(5-fluoropyridin-3-yl)-4-methylphenyl)-3-(2-hydroxypropan-2-yl)-6-azabicyclo[3.1.1]heptane-6-carboxamide], 4.2 µM corresponded to half-maximal inhibition (Activity (μM)) (IC50) and the 50% inhibitory concentration (IC50) (Activity) was in the range of 1 to 10 µM.

For the compound `Cc1ccc(NC(=O)N2C3C[C@H]2C[C@@]2(C3)CC2(F)F)cc1-c1cncc(F)c1` [Example 11, cis-2′,2′-difluoro-N-(3-(5-fluoropyridin-3-yl)-4-methylphenyl)-6-azaspiro[bicyclo[3.1.1]heptane-3,1′-cyclopropane]-6-carboxamide], the IC50 is 0.08 µM (Activity (μM)) and 0.0001 to 1 µM (Activity).

As for `Cc1ccc(NC(=O)N2C3C[C@@H]2C[C@@H](C(C)(C)O)C3)cc1-c1cncc(F)c1` [Example 14, trans-N-(3-(5-fluoropyridin-3-yl)-4-methylphenyl)-3-(2-hydroxypropan-2-yl)-6-azabicyclo[3.1.1]heptane-6-carboxamide], the concentration for half-maximal inhibition (IC50) (Activity (μM)) amounted to 23.9 µM and the 50% inhibitory concentration (IC50) (Activity) was over 10 µM.

For the compound `COC[C@H]1CC[C@H]2CC1N2C(=O)Nc1ccc(C)c(-c2cncc(F)c2)c1` [Example 15, cis-N-(3-(5-fluoropyridin-3-yl)-4-methylphenyl)-2-(methoxymethyl)-6-azabicyclo[3.1.1]heptane-6-carboxamide], the IC50 runs as follows: (Activity (μM)) 1.7 µM; (Activity) 1 to 10 µM.

Regarding `Cc1ccc(NC(=O)N2C[C@@H]3CC2C[C@H]3C#N)cc1-c1cncc(F)c1` [Example 16, cis-5-cyano-N-(3-(5-fluoropyridin-3-yl)-4-methylphenyl)-2-azabicyclo[2.2.1]heptane-2-carboxamide], the IC50 (Activity (μM)) came to 41 µM and the IC50 (Activity) was over 10 µM.

Regarding `Cc1ccc(NC(=O)N2C3C[C@H](C)C[C@@H]2C3)cc1-c1cccnc1` [Example 17, cis-3-methyl-N-(4-methyl-3-(pyridin-3-yl)phenyl)-6-azabicyclo[3.1.1]heptane-6-carboxamide], the IC50 reads like this: (Activity (μM)) 0.008 µM; (Activity) 0.0001 to 1 µM.

In turn, `Cc1ccc(NC(=O)N2CC3CCC2C3)cc1-c1cncc(F)c1` (stereo not drawn) [Example 18, N-(3-(5-fluoropyridin-3-yl)-4-methylphenyl)-2-azabicyclo[2.2.1]heptane-2-carboxamide] showed an IC50 (Activity (μM)) of 1 µM and an IC50 (Activity) of 1 to 10 µM.

As for `Cc1ccc(NC(=O)N2C[C@H]3C[C@@H]2CN3c2ncccn2)cc1-c1cncc(F)c1` [Example 19, (1R,4R)-N-(3-(5-fluoropyridin-3-yl)-4-methylphenyl)-5-(pyrimidin-2-yl)-2,5-diazabicyclo[2.2.1]heptane-2-carboxamide], the half-inhibitory concentration (IC50) was 19.8 µM (Activity (μM)) and over 10 µM (Activity).

For `Cc1ccc(NC(=O)N2[C@H](C)CCC[C@@H]2C)cc1-c1cncc(F)c1` [Example 21, cis-N-(3-(5-fluoropyridin-3-yl)-4-methylphenyl)-2,6-dimethylpiperidine-1-carboxamide], the 50% inhibitory concentration (IC50) is 1.5 µM (Activity (μM)) and 1 to 10 µM (Activity).

As for `Cc1ccc(NC(=O)N2[C@H](C)CCC[C@H]2C)cc1-c1cncc(F)c1` [Example 22, (2R,6R)-N-(3-(5-fluoropyridin-3-yl)-4-methylphenyl)-2,6-dimethylpiperidine-1-carboxamide], the half-maximal inhibitory concentration (IC50) by setting is: (Activity (μM)) 1.2 µM; (Activity) 1 to 10 µM.

As to `O=C(Nc1ccc(CC(F)F)c(-c2cncc(F)c2)c1)N1C2CCCC1C2` [Example 23, N-(4-(2,2-difluoroethyl)-3-(5-fluoropyridin-3-yl)phenyl)-6-azabicyclo[3.1.1]heptane-6-carboxamide], the IC50 runs as follows: (Activity (μM)) 0.9 µM; (Activity) 0.0001 to 1 µM.

In the case of `Cc1ccc(NC(=O)N2C3C[C@@H]2C[C@H](n2cccn2)C3)cc1-c1cncc(F)c1` [Example 27, cis-N-(3-(5-fluoropyridin-3-yl)-4-methylphenyl)-3-(1H-pyrazol-1-yl)-6-azabicyclo[3.1.1]heptane-6-carboxamide], the IC50 by setting is: (Activity (μM)) 14.1 µM; (Activity) over 10 µM.

As for `O=C(Nc1ccc(CCF)c(-c2cncc(F)c2)c1)N1C2CCCC1C2` [Example 28, N-(4-(2-fluoroethyl)-3-(5-fluoropyridin-3-yl)phenyl)-6-azabicyclo[3.1.1]heptane-6-carboxamide], the 50% inhibitory concentration (IC50) reads like this: (Activity (μM)) 0.8 µM; (Activity) 0.0001 to 1 µM.

For `Cc1ccc(NC(=O)N2C3C[C@H](OC(F)F)C[C@@H]2C3)cc1-c1cncc(F)c1` [Example 29, cis-3-(difluoromethoxy)-N-(3-(5-fluoropyridin-3-yl)-4-methylphenyl)-6-azabicyclo[3.1.1]heptane-6-carboxamide], the IC50 was 0.1 µM (Activity (μM)) and 0.0001 to 1 µM (Activity).

As to `Cc1ccc(NC(=O)N2C3CC[C@H](C#N)[C@@H]2C3)cc1-c1cncc(F)c1` [Example 30, cis-2-cyano-N-(3-(5-fluoropyridin-3-yl)-4-methylphenyl)-6-azabicyclo[3.1.1]heptane-6-carboxamide], the IC50 by setting is: (Activity (μM)) 5.5 µM; (Activity) 1 to 10 µM.

`Cc1ccc(NC(=O)N2C3CC[C@H](C(=O)N(C)C)[C@@H]2C3)cc1-c1cncc(F)c1` [Example 33, cis-N^6-(3-(5-fluoropyridin-3-yl)-4-methylphenyl)-N^2,N^2-dimethyl-6-azabicyclo[3.1.1]heptane-2,6-dicarboxamide] had an IC50 (Activity (μM)) of 32.9 µM and an IC50 (Activity) of over 10 µM.

Consider `Cc1ccc(NC(=O)N2C3CC[C@@H](C(=O)N(C)C)[C@@H]2C3)cc1-c1cncc(F)c1` [Example 34, trans-N^6-(3-(5-fluoropyridin-3-yl)-4-methylphenyl)-N^2,N^2-dimethyl-6-azabicyclo[3.1.1]heptane-2,6-dicarboxamide], for which the half-maximal inhibitory concentration (IC50) is, setting by setting: (Activity (μM)) 47.3 µM; (Activity) over 10 µM.

With `Cc1ccc(NC(=O)N2C3CCCC2C3)cc1-c1cncc(OC(F)(F)F)c1` [Example 35, N-(4-methyl-3-(5-(trifluoromethoxy)pyridin-3-yl)phenyl)-6-azabicyclo[3.1.1]heptane-6-carboxamide], the half-inhibitory concentration (IC50) was 0.1 µM (Activity (μM)) and 0.0001 to 1 µM (Activity).

Regarding `Cc1ccc(NC(=O)N2C3C[C@@H](C#N)C[C@@H]2C3)cc1-c1cncc(F)c1` [Example 36, trans-3-cyano-N-(3-(5-fluoropyridin-3-yl)-4-methylphenyl)-6-azabicyclo[3.1.1]heptane-6-carboxamide], the concentration for half-maximal inhibition (IC50) was 0.8 µM (Activity (μM)) and 0.0001 to 1 µM (Activity).

Compound `Cc1ccc(NC(=O)N2C3CC2CC(F)(F)C3)cc1-c1cncc(F)c1` [Example 37, 3,3-difluoro-N-(3-(5-fluoropyridin-3-yl)-4-methylphenyl)-6-azabicyclo[3.1.1]heptane-6-carboxamide] had a half-maximal inhibitory concentration (IC50) (Activity (μM)) of 0.5 µM and an IC50 (Activity) of 0.0001 to 1 µM.

On to `Cc1ccc(NC(=O)N2C3CC(=O)CC2C3)cc1-c1cncc(F)c1` [Example 38, N-(3-(5-fluoropyridin-3-yl)-4-methylphenyl)-3-oxo-6-azabicyclo[3.1.1]heptane-6-carboxamide], for which the IC50 runs as follows: (Activity (μM)) 2.3 µM; (Activity) 1 to 10 µM.

Take `CCO[C@H]1CC2C[C@H](C1)N2C(=O)Nc1ccc(C)c(-c2cncc(F)c2)c1` [Example 39, trans-3-ethoxy-N-(3-(5-fluoropyridin-3-yl)-4-methylphenyl)-6-azabicyclo[3.1.1]heptane-6-carboxamide]: the IC50 runs as follows: (Activity (μM)) 8.3 µM; (Activity) 1 to 10 µM.

Take `COC(=O)[C@H]1CCC2C[C@@H]1N2C(=O)Nc1ccc(C)c(-c2cncc(F)c2)c1` [Example 40, cis-methyl 6-((3-(5-fluoropyridin-3-yl)-4-methylphenyl)carbamoyl)-6-azabicyclo[3.1.1]heptane-2-carboxylate]: the IC50 was 20.9 µM (Activity (μM)) and over 10 µM (Activity).

As for `Cc1cc(F)c(NC(=O)N2C3C[C@H](C)C[C@@H]2C3)cc1-c1cncc(F)c1` [Example 41, cis-N-(2-fluoro-5-(5-fluoropyridin-3-yl)-4-methylphenyl)-3-methyl-6-azabicyclo[3.1.1]heptane-6-carboxamide], the 50% inhibitory concentration (IC50) reads like this: (Activity (μM)) 0.04 µM; (Activity) 0.0001 to 1 µM.

Regarding `C[C@@H]1CC2C[C@H](C1)N2C(=O)Nc1ccc(C(F)F)c(-c2cncc(F)c2)c1` [Example 42, cis-N-(4-(difluoromethyl)-3-(5-fluoropyridin-3-yl)phenyl)-3-methyl-6-azabicyclo[3.1.1]heptane-6-carboxamide], the half-inhibitory concentration (IC50) runs as follows: (Activity (μM)) 0.06 µM; (Activity) 0.0001 to 1 µM.
